Measured values published in patent US20020115710A1, “Composition and method” (priority 2000, published 2002).

How the values were obtained:
[1] = test system: GSH:GSSG ratio; experiment: GSH:GSSG ratio in isolated blood lymphocytes of dogs fed dl-alpha lipoic acid (Example 3); format: in vivo
From the text: (§1) 30 adult, random source, dogs were utilized for this study. Dogs were at least 10 months of age, not pregnant, not lactating and of reasonable body weight prior to start of test. Animals were randomized into 5 groups for dietary treatment with 3 males and 3 females per each group.
All dogs were fed a control food (0 ppm dl-alpha-lipoic acid added) that met or exceeded all recommendations for nutrients as proposed by the American Association of Feed Control Officials (AAFCO 2000) during a 2 week prefeeding period (Table 1). Following the prefeeding period dogs were randomized into 5 treatment groups with one of the following dl-alpha lipoic acid target-inclusions (dry matter basis): 0 ppm, 150 ppm, 1500 ppm, 3000 ppm, 4500 ppm. In all diets, control and alpha lipoic acid, Vitamin E was added and was present at a level of 600-1000 International Units and Vitamin C was added at levels of 100-200 ppm.
Blood was collected aseptically for complete blood count, and blood biochemistry analysis 2 weeks prior to start and again at 0, 28, 56, 84, 112, 140 and 168 days of the study. In addition, 15 ml of whole blood was collected for isolation of lymphocytes at day 0, 28 and 84 of the dietary intervention.
Heparainzed whole blood was layered onto a 50 ml Accuspin conical centrifuge tube (Sigma Chemical) and an equal volume of Phosphate buffered saline (PBS) was added. Samples were centrifuged at 700 g for 30 minutes without brake. The monocyte layer was harvested, transferred to a 15 ml conical centrifuge tube, resuspended in 1-3 ml of PB, and centrifuged as before (First wash). A second wash was performed as the first wash. Finally, cells were harvested and suspended in perchloric acid (10%w/v) and frozen at −−70C until analysis.
Samples were transferred from −70° C. freezer into a cooler with dry ice in it. Vials were centrifuged at 12,000 rpm for 5 minutes in a refrigerated centrifuge. An aliquot of supernatant for glutathione (GSH) analysis was transferred to a conical test tube.
Derivatization of the acid soluble extracts was by the method of Reed and coworkers (Fariss et al) as modified by Jones (Jones et al)
Briefly, 150 μl extract or external standards were added into a 1.5 ml eppendorf tube followed by addition of 20 μl γ-glu-glu internal standard and 50 μl IAA added followed by mixing. The solution was adjusted to pH ˜10 (purple color) by using KOH—KHCO3 working solution. Solutions were incubated 1 hr. under room temperature in the dark. Sanger's reagent was added at the same volume as of the total volume and the solution was incubated overnight (20 hrs) in the dark at room temperature.
After incubation, the solution was centrifuged at 12000 rpm for 5 minutes with the supernatant transferred into another 1.5 ml eppendorf tube.
Solvents and separation conditions were as described (Fariss, Jones). Levels of GSH and GSSG were quantified relative to authentic standards. Gamma-glutamyl-glutamate was used as an internal standard to assess derivatization efficiency.
Comparison of values for clinical chemistry, hematology and body weights vs baseline were analyzed by way of paired t-test on SAS for windows with significance set at P<0.05. Means of values at each measured time point were separated by a one-way ANOVA with significance set at P<0.05. The difference in GSH:GSSG between day 84 and baseline were analyzed between groups by way of SAS for windows in a one-way ANOVA with significance set at P<0.05.

[2] = test system: dogs; experiment: Feeding safety study of dl-alpha lipoic acid in food: body weight, physical examination, serum biochemistry, hematology (Example 3); format: in vivo
From the text: as §1
All dogs were fed a control food (0 ppm dl-alpha-lipoic acid added) that met or exceeded all recommendations for nutrients as proposed by the American Association of Feed Control Officials (AAFCO 2000) during a 2 week prefeeding period (Table 1). […]
Test foods were the sole source of nutrients except for water. […] After dogs were selected and initial body weights taken, a food dose was calculated for each dog based on the expected ME of the food. Initial food dose calculations were based on the maintenance energy requirement (MER) for the dog modified by a factor to account for normal activity as calculated by the following formula: […]
Dogs were weighed weekly and had food doses adjusted as needed in order to feed enough food to maintain their optimal body weight. Optimal body weight was determined to be 3 on a 5 point scale. […] All measures of body weight and food intake were recorded. […]
Comparison of values for clinical chemistry, hematology and body weights vs baseline were analyzed by way of paired t-test on SAS for windows with significance set at P<0.05. […]

## O=C(O)CCCCC1CCSS1 (racemic) [dl-alpha-lipoic acid]
[1]; 150 ppm inclusion in extruded food, N 6
  Difference in GSH:GSSG ratio-d 0 to d 84 compared to baseline food: 70 ± 20
[1]; 1500 ppm inclusion in extruded food, N 6
  Difference in GSH:GSSG ratio-d 0 to d 84 compared to baseline food: 24 ± 7
[1]; 3000 ppm inclusion in extruded food, N 4
  Difference in GSH:GSSG ratio-d 0 to d 84 compared to baseline food: 10 ± 4
[1]; 4500 ppm inclusion in extruded food, N 4
  Difference in GSH:GSSG ratio-d 0 to d 84 compared to baseline food: 50 ± 36
[1]; 84 days of feeding in diet
  effect on reduced glutathione (GSH) to oxidized glutathione (GSSG) ratio: improves
[2]; dog, in vivo
  safety of chronic feeding in diet: safe
[2]; dogs, no trend attributable to lipoic acid
  vomiting during the study: Occasional vomiting was observed in several animals
